US8163909B2, “Substituted hydroxyethyl amine compounds as beta-secretase modulators and methods of use” (Amgen Inc., priority 2007, dated 2012)
pIC50: −log10 of the molar value. Read-outs that look alike come from different tables or passages of the source.

What was measured:
[1] = Microsomal stability assay, rat liver microsomes;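 note: rat liver microsomes (0.25 mg/mL) with about 1 µM compound plus 1 mM NADPH, pH 7.4, 37 °C for 30 min, parent left measured by LC-MS/MS against 0 min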
CYP3A4 (CYP3A) = CYP3A4 (CYP3A) (Homo sapiens, UniProt P08684); assay: in vitro; details: microsomes, pH 7.4;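 note: inhibition of CYP3A-mediated 1-hydroxymidazolam formation after 10 min incubation with NADPH, quantified by HPLC MS relative to metabolite produced without test compound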
Chain of CYP3A4 (CYP3A) (P08684 2-503): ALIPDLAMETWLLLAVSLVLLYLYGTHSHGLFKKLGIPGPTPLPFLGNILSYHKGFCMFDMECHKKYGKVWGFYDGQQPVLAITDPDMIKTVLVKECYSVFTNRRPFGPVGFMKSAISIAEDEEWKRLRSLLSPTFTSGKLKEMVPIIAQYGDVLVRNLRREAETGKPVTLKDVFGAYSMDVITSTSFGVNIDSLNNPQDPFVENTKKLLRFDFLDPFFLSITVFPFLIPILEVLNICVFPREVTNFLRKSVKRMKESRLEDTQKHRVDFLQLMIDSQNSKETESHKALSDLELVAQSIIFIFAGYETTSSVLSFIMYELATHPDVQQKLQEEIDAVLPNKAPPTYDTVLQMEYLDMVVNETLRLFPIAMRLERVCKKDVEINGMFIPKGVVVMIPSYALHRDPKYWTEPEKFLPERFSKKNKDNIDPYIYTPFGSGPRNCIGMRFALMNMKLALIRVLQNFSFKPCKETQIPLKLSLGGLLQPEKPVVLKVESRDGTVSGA

[2] = biological target: Beta Secretase enzyme (BACE) (Homo sapiens, UniProt P56817); assay: In vitro enzymatic BACE FRET (fluorescence resonance energy transfer) assay; type: biochemical; details: for IC50: IC50's in uM;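 for all read-outs here: fluorescence read after 1 h with 50 nM quenched peptide substrate spanning the BACE cleavage site, in pH 4.2 acetate buffer containing 10% DMSO and nonionic detergent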
Chain of Beta Secretase enzyme (BACE) (P56817 46-501): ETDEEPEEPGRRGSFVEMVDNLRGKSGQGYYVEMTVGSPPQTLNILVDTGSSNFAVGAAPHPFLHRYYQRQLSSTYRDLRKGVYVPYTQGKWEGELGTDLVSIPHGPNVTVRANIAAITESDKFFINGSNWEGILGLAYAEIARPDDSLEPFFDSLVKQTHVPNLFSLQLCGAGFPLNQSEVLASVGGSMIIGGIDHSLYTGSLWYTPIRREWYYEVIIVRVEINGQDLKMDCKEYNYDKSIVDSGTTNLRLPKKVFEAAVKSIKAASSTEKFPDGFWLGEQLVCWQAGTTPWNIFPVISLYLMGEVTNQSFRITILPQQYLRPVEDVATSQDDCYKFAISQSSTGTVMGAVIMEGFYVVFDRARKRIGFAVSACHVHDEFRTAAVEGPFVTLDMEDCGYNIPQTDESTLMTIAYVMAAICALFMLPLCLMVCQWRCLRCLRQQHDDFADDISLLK

[3] = tested on: Aβ40 in conditioned medium of cells stably expressing Amyloid Precursor Protein (APP); assay: In vitro BACE cell-based assay (Aβ40 in conditioned medium, sandwich ELISA); details: Homo sapiens; for IC50: IC50's in uM;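 for all read-outs here: compounds added as a dilution series, secreted peptide quantified by europium time-resolved fluorescence readout, potency fitted from percent of control versus compound concentration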
[4] = Microsomal stability assay, human liver microsomes;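 note: pooled human liver microsomes at 0.25 mg/mL with 1 µM compound and NADPH at 37 °C, pH 7.4, for 30 min, unchanged parent quantified by LC-MS/MS against the 0 min sample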
CYP2D6 = CYP2D6 (Homo sapiens, UniProt P10635); assay: CYP2D6 inhibition assay (bufuralol, pooled human liver microsomes); details: for IC50: 2D6 IC50 (uM)
Chain of CYP2D6 (P10635 whole entry): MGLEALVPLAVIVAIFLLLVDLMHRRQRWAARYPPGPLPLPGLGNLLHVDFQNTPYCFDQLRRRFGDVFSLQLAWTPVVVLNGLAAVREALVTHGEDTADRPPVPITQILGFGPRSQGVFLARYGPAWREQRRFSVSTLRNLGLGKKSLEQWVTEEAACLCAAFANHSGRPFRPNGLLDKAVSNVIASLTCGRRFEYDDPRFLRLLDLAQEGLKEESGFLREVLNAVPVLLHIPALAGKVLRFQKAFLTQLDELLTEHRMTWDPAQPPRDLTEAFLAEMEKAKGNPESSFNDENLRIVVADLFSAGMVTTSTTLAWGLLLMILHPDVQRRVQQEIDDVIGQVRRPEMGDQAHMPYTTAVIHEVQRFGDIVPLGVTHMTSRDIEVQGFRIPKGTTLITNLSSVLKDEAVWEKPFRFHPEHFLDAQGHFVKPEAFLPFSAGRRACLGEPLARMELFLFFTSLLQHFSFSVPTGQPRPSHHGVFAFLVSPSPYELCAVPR

[5] = BACE enzyme assay, read-out: BACE1 FRET assay
[6] = HEK293, HEK cell-based assay, read-out: HEK cell assay
[7] = BACE enzyme assay IC50, read-out: BACE1 FRET assay
[8] = HEK293, HEK cell-based assay IC50, read-out: HEK cell assay
[9] = HEK293, cell-based assay, HEK cells, read-out: HEK cell assay
[10] = 2D6 IC50, CYP enzyme inhibition
[11] = read-out: BACE1 FRET assay (IC50)
[12] = HEK293, HEK cells, read-out: HEK cell assay (IC50)
[13] = HEK293, HEK cells, read-out: HEK cell assay

SMILES	RLM ([1]; rat liver microsomal data)	pIC50 (CYP3A4 (CYP3A))	IC50 [2, 5]	IC50 [3, 6]	HLM ([4]; human liver microsomal data)	IC50 (CYP2D6; CYP enzyme inhibition)	RLM ([1]; rat liver microsomes)	HLM ([4]; human liver microsomes)	other results
COCC(=O)N[C@@H](Cc1cccc(-c2ncco2)c1)[C@H](O)CN[C@H]1CC2(CCC2)Oc2ncc(CC(C)C)cc21 [compound 804, N-((1S,2R)-2-hydroxy-3-(((4′S)-6′-(2-methylpropyl)-3′,4′-dihydrospiro[cyclobutane-1,2′-pyrano[2,3-b]pyridin]-4′-yl)amino)-1-(3-(1,3-oxazol-2-yl)benzyl)propyl)-2-methoxyacetamide]	43 µL/min/mg	6.70	0.009 µM	0.03 µM	61 µL/min/mg	2.5 µM	–	–	–
CO[C@H](C)C(=O)N[C@@H](Cc1cccc(Br)c1)[C@H](O)CN[C@H]1CC2(CCC2)Oc2ncc(CC(C)C)cc21 [compound 801]	644 µL/min/mg	6.52	0.016 µM	0.118 µM	399 µL/min/mg	3.8 µM	–	–	–
C#Cc1cnc2c(c1)[C@@H](NC[C@@H](O)[C@H](Cc1cc(F)cc(-c3nccs3)c1)NC(=O)COC)CC1(CCC1)O2 [compound 766]	64 µL/min/mg	6.70	0.055 µM	0.272 µM	70 µL/min/mg	1.4 µM	–	–	–
CC(=O)N[C@@H](Cc1ccc(-c2cscn2)cc1)[C@H](O)CN[C@H]1CC2(CCC2)Oc2ncc(CC(C)(C)C)cc21 [compound 693]	–	6.70	–	–	–	–	63 µL/min/mg	110 µL/min/mg	pIC50 [2, 7]: 7.37; pIC50 [3, 8]: 7.22; IC50 (CYP2D6; CYP2D6 inhibition): 2.9 µM
CC#Cc1ccc2c(c1)[C@@H](NC[C@@H](O)[C@H](Cc1cc(F)cc(-c3nccs3)c1)NC(=O)COC)CC1(CCC1)O2 [compound 806]	92 µL/min/mg	6.70	0.669 µM	4.15 µM	61 µL/min/mg	0.6 µM	–	–	–
COCC(=O)N[C@@H](Cc1cccc(-c2nccs2)c1)[C@H](O)CN[C@H]1CC2(CCC2)Oc2ncc(CC(C)(C)F)cc21 [compound 813, N-((1S,2R)-3-(((4′S)-6′-(2-fluoro-2-methylpropyl)-3′,4′-dihydrospiro[cyclobutane-1,2′-pyrano[2,3-b]pyridin]-4′-yl)amino)-2-hydroxy-1-(3-(1,3-thiazol-2-yl)benzyl)propyl)-2-methoxyacetamide]	27 µL/min/mg	6.30	0.006 µM	0.014 µM	32 µL/min/mg	1.1 µM	–	–	–
CCOCC(=O)N[C@@H](Cc1ccc(F)c(-c2nccs2)c1)[C@H](O)CN[C@H]1CC2(CCC2)Oc2ncc(CC(C)(C)C)cc21 [compound 904]	47 µL/min/mg	7.00	0.004 µM	–	38 µL/min/mg	–	–	–	IC50 [3, 9]: 0.062 µM; pIC50 (CYP2D6; [10]): 6.30
CCC(=O)N[C@@H](Cc1cc(F)cc(-c2nccs2)c1)[C@H](O)CN[C@H]1CC2(CCC2)Oc2ncc(CC(C)(C)C)cc21 [compound 860]	69 µL/min/mg	6.70	0.004 µM	–	62 µL/min/mg	–	–	–	IC50 [3, 9]: 0.015 µM; pIC50 (CYP2D6; [10]): 6.52
CC(=O)N[C@@H](Cc1ccc(F)c(-c2ccco2)c1)[C@H](O)CN[C@H]1CC2(CCC2)Oc2ccc(CC(C)(C)C)cc21 [Example 432, N-((2S,3R)-4-((S)-2,2-spirocyclobutyl-6-neopentyl-3,4-dihydro-2H-chromen-4-ylamino)-1-(4-fluoro-3-(furan-2-yl)phenyl)-3-hydroxybutan-2-yl)acetamide]	–	5.82	–	–	–	–	323 µL/min/mg	280 µL/min/mg	pIC50 [2, 11]: 8.22; pIC50 [3, 12]: 6.48; pIC50 (CYP2D6; 2D6 IC50, CYP2D6 inhibition): 5.51
COCC(=O)N[C@@H](Cc1ccc(F)c(-c2nccs2)c1)[C@H](O)CN[C@H]1CC2(CCC2)Oc2ncc(CC(C)C)cc21 [compound 727]	–	≥ 7.52	–	–	–	–	74 µL/min/mg	45 µL/min/mg	pIC50 [2, 7]: 7.96; pIC50 [3, 8]: 7.64; IC50 (CYP2D6; CYP2D6 inhibition): 0.5 µM
COCC(=O)N[C@@H](Cc1cccc(F)c1)[C@H](O)CN[C@H]1CC2(CCC2)Oc2c(-c3ccncc3)cc(Cl)cc21 [compound 550]	315 µL/min/mg	6.70	–	–	338 µL/min/mg	0.5 µM	–	–	pIC50 [2, 5]: 7.38; pIC50 [3, 13]: 6.32
CO[C@H](C)C(=O)N[C@@H](Cc1cncs1)[C@H](O)CN[C@H]1CC2(CCC2)Oc2c1cc(CC(C)(C)C)nc2-c1ccccn1 [compound 781]	82 µL/min/mg	6.40	0.071 µM	0.206 µM	104 µL/min/mg	≥ 27 µM	–	–	–
COCC(=O)N[C@@H](Cc1cc(F)cc(F)c1)[C@H](O)CN[C@H]1CC2(CCC2)Oc2c(-c3cnc[nH]3)cc(CC(C)C)cc21 [compound 480]	405 µL/min/mg	6.30	–	–	272 µL/min/mg	–	–	–	pIC50 ([2]; Table 2, read-out: BACE1 FRET assay): 7.64; pIC50 ([3]; HEK293, Table 2, HEK cells, read-out: HEK cell assay): 8.22; pIC50 (CYP2D6; [10]): 5.00
CC(C)(C)Cc1cnc2c(c1)[C@@H](NC[C@@H](O)[C@H](Cc1ccc(F)cc1)NC(=O)[C@H]1CN(Cc3cscn3)CCO1)CC1(CCC1)O2 [compound 774]	57 µL/min/mg	6.70	0.017 µM	0.006 µM	111 µL/min/mg	5.3 µM	–	–	–
COCC(=O)N[C@@H](Cc1ccc2c(c1)OCO2)[C@H](O)CN[C@H]1CC2(CCC2)Oc2c1cc(CC(C)C)nc2-c1ccncc1 [compound 669]	–	≥ 7.52	–	–	–	–	77 µL/min/mg	45 µL/min/mg	pIC50 [2, 7]: 7.47; pIC50 [3, 8]: 7.06; IC50 (CYP2D6; CYP2D6 inhibition): 0.3 µM
COCC(=O)N[C@@H](Cc1cc(F)cc(F)c1)[C@H](O)CN[C@H]1CC2(CCC2)Oc2c(-c3ccncc3)cc(CC(C)C)cc21 [compound 586]	–	7.00	–	–	–	–	65 µL/min/mg	31 µL/min/mg	pIC50 [2, 11]: 8.05; pIC50 [3, 12]: 8.22; pIC50 (CYP2D6; 2D6 IC50, CYP2D6 inhibition): 5.89
CO[C@H](C)C(=O)N[C@@H](Cc1cc(F)cc(-c2nccs2)c1)[C@H](O)CNC1CC2(CCC2)Oc2ncc(CC(C)(F)F)cc21 (stereo partly drawn) [compound 765, (2R)-N-((1S,2R)-3-((6′-(2,2-difluoropropyl)-3′,4′-dihydrospiro[cyclobutane-1,2′-pyrano[2,3-b]pyridin]-4′-yl)amino)-1-(3-fluoro-5-(1,3-thiazol-2-yl)benzyl)-2-hydroxypropyl)-2-methoxypropanamide]	39 µL/min/mg	6.70	0.021 µM	0.054 µM	35 µL/min/mg	0.7 µM	–	–	–
CC(C)(C)Cc1cnc2c(c1)[C@@H](NC[C@@H](O)[C@H](Cc1ccc3c(c1)OCO3)NC(=O)[C@@H]1CCO1)CC1(CCC1)O2 [compound 525]	101 µL/min/mg	6.70	–	–	32 µL/min/mg	3.1 µM	–	–	pIC50 [2, 5]: 7.68; pIC50 [3, 13]: 7.72
COCC(=O)N[C@@H](Cc1cc(Br)cc(-c2nccs2)c1)[C@H](O)CN[C@H]1CC2(CCC2)Oc2ncc(CC(C)(C)C)cc21 [compound 851]	59 µL/min/mg	6.70	0.013 µM	–	71 µL/min/mg	–	–	–	IC50 [3, 9]: 0.057 µM; pIC50 (CYP2D6; [10]): 6.15
CO[C@H](C)C(=O)N[C@@H](Cc1ccc(-c2nccs2)cc1)[C@H](O)CN[C@H]1CC2(CCC2)Oc2ncc(CC(C)(C)C)cc21 [compound 735]	–	≥ 7.52	–	–	–	–	80 µL/min/mg	78 µL/min/mg	pIC50 [2, 7]: 7.31; pIC50 [3, 8]: 7.22; IC50 (CYP2D6; CYP2D6 inhibition): 1 µM
COCC(=O)N[C@@H](Cc1cccc(F)c1)[C@H](O)CN[C@H]1CC2(CCC2)Oc2c1cc(CC(C)(C)C)nc2-c1ccncc1 [compound 531]	159 µL/min/mg	6.70	–	–	40 µL/min/mg	1.3 µM	–	–	pIC50 [2, 5]: 7.89; pIC50 [3, 13]: 7.54
COC(OC)C(=O)N[C@@H](Cc1cccc(C#N)c1)[C@H](O)CN[C@H]1CC2(CCC2)Oc2ncc(CC(C)(C)C)cc21 [compound 798]	423 µL/min/mg	6.30	0.006 µM	0.005 µM	468 µL/min/mg	4.7 µM	–	–	–
CN1CCO[C@H](C(=O)N[C@@H](Cc2ccc(F)cc2)[C@H](O)CN[C@H]2CC3(CCC3)Oc3ncc(CC(C)(C)C)cc32)C1 [compound 744]	–	6.05	–	–	–	–	266 µL/min/mg	333 µL/min/mg	pIC50 [2, 7]: 6.43; pIC50 [3, 8]: 7.12; IC50 (CYP2D6; CYP2D6 inhibition): 11.2 µM
Cc1ccc(CN2CCO[C@H](C(=O)N[C@@H](Cc3ccc(F)cc3)[C@H](O)CN[C@H]3CC4(CCC4)Oc4ncc(CC(C)(C)C)cc43)C2)cc1 [compound 708]	–	6.70	–	–	–	–	278 µL/min/mg	310 µL/min/mg	pIC50 [2, 7]: 6.81; pIC50 [3, 8]: 6.59; IC50 (CYP2D6; CYP2D6 inhibition): 6.8 µM
CO[C@H](C)C(=O)N[C@@H](Cc1cccc(F)c1)[C@H](O)CN[C@H]1CC2(CCC2)Oc2c(-c3ccncc3)cc(CC(C)C)cc21 [compound 609]	–	7.00	–	–	–	–	137 µL/min/mg	64 µL/min/mg	pIC50 [2, 11]: 8.10; pIC50 [3, 12]: 8.30; pIC50 (CYP2D6; 2D6 IC50, CYP2D6 inhibition): 5.70
